For data set [1] the following is noted: intravenous administration; cited from earlier work.
A short description of data set [2]: Second set of test cases: fluoroscopically guided spinal injections with gadolinium. The format is in vivo, human. As for the experimental part: During the second of set of tests, gadolinium was injected into a variety of target portions of the spinal area to create a contrast between the target portion and surrounding tissue. As described below, these contrasts were adequately sensed using fluoroscopy to create visual representations of the contrast between the target portion and the surrounding tissue. The second set of tests utilized a preferred embodiment of the method of using gadolinium as a contrast substance, where a visualization was created to use as a guide for the accurate injection of a diagnostic or therapeutic substance into the target portion of the spinal area. In this respect, visualization of the contrast helps to localize placement of a needle for an injection of a substance avoiding the harm that the injection might cause to surrounding tissue.
The second set of tests comprised chart review, performance of spinal injections with gadolinium under fluoroscopic guidance, and post procedure follow-up by phone at two and twelve weeks to assess any adverse reactions to the gadolinium. […] The tests utilized a contrast substance that was 469.01 mg/ml gadolinium (Magnevist—from Berlex Laboratories, Wayne, N.J.). […]

A short description of data set [3]: Third set of cases: spinal interventional procedures with fluoroscopic guidance, adverse reactions. The format is in vivo, human. From the text:
In a third set of cases, two-hundred-and-thirty patients underwent spinal interventional procedures with fluoroscopic guidance. Two-hundred-and-eleven patients were subsequently evaluated for any adverse reaction in the period immediately after the procedure and up to several weeks after the procedure. Seventy-four of the patients were male and one-hundred-and-thirty-seven were female. The age range of the patient population varied from sixteen years old to eighty-one year old, and the average age of the patient population was 48.7 years old. The only prophylactic medications that were administered before the procedure were antibiotics for patients undergoing discography, patients with significant cardiac disease, or patients with surgical implants. The number and type of procedures along with the number of adverse reactions for each procedure type are summarized in below in Table 1: […]

Data set [4] is described as follows: First set of test cases: gadolinium lumbar discography with fluoroscopy and CT. It is filed as in vivo, human. Conditions: for visibility of contrast on computer axial tomography: approximately one-hundred-and-sixty minutes after injection, case 1-1. The method, then:
A first set of test cases was conducted wherein it was identified that gadolinium would adequately opacify, thereby allowing adequate fluoroscopic imaging for of soft tissue portions of the spinal area and, for example, for lumbar discography procedures. […] During the first set of test cases, a solution of 469.01 mg/ml gadolinium (Magnevist—Berlex Laboratories, Wayne, N.J.) with 25 mg/ml Cefazolin (Apothecon, Princeton, N.J.) for antibacterial prophylaxis was injected into each disc using a standard three milliliter syringe. The following is a brief synopsis of six tests from the first set of tests:
The volume of contrast injected at pain onset, the end point (nucleography), the pain intensity measured with the numerical analog scale, and the concordant and/or discordant pain response were recorded for each spinal disc to be injected with gadolinium. Each spinal disc then was visualized with c-arm fluoroscopy to create a visualization of the nucleogram and provocation of the spinal discs.

The conditions of data set [5]: cited from earlier work.
Where [6] appears, read: repeated exposure in sensitive individuals.

“Also recorded” adds a separate entry of the source. Read-outs that look alike come from different tables or passages of the source.

As for `CNC[C@H](O)[C@@H](O)[C@H](O)[C@H](O)CO.CNC[C@H](O)[C@@H](O)[C@H](O)[C@H](O)CO.O=C([O-])CN(CCN(CC(=O)[O-])CC(=O)O)CCN(CC(=O)[O-])CC(=O)O.[Gd+3]` [gadolinium, gadopentate dimeglumine], in data set [1], the adverse reaction rate is recorded as 0.06%. The “side effects, complications or adverse reactions” value in data set [2] (469.01 mg/ml gadolinium (Magnevist), follow-up at two and twelve weeks) is reported as “no side effects or complications; also recorded: None of the individuals in the case series of the present invention had any adverse reactions”. The visibility under fluoroscopy result in data set [2] (soft tissue of the spinal area) is listed as “visible under fluoroscopy”. Also, the “Number of Adverse Reactions” value was 0 in data set [3] (Caudal epidural, 16 procedures); 1 in data set [3] (Cervical SNRB, 14 procedures); 1 in data set [3] (Cervical interlaminar, 6 procedures); 4 in data set [3] (Lumbar SNRB, 55 procedures); 0 in data set [3] (Lumbar discography, 11 procedures); 0 in data set [3] (Lumbar epidurolysis, 4 procedures). Also, the “Number of Adverse Reactions” value stood at 1 in data set [3] (Lumbar interlaminar, 37 procedures); 0 in data set [3] (Lumbar intraarticular facet, 3 procedures); 0 in data set [3] (Lumbar sympathetic, 4 procedures); 1 in data set [3] (Other miscellaneous, 13 procedures); 2 in data set [3] (Sacroiliac joint, 59 procedures). For the same compound, in data set [3] (all procedures, fluoroscopic devices), the “quality of visualizations from gadolinium-induced contrasts” value is on record as “adequate visualizations”. In data set [3] (of the five allergic-type reactions, likely due to contributing factors), the serious adverse reactions entry is recorded as “one”. For the same compound, in data set [3] (out of the ten adverse reactions), the “adverse reactions attributable to allergic-type reactions” value is listed as “five”. In addition, the “visibility in disc material on fluoroscopic image” value in data set [4] (after injection into spinal discs) was “fluoroscopically visible; also recorded: clearly visible”. Moreover, the “visibility of contrast on computer axial tomography” value in data set [4] (L3-L4 spinal disc) was “visible”; in data set [4] (L4-L5 disrupted spinal disc), “less intensive, but still visible”. The “complications during or after the procedure” value in data set [4] (intradiscal, 469.01 mg/ml gadolinium with 25 mg/ml Cefazolin, single patient cases) is reported as “No complications”. Further, in data set [4] (more than one-hundred-and-twenty minutes after injection, discs with and without annular disruption), the “visibility on CT scan” value is “still visible”. For the same compound, the “visibility on computer axial tomography” value in data set [4] (thirty minutes after completion of the procedure, case 1-2) is “showed gadolinium in each disc”.

Take `CC(=O)N(CC(O)CO)c1c(I)c(C(=O)NCC(O)CO)c(I)c(C(=O)NCC(O)CO)c1I` (stereo not drawn) [iohexol]: the anaphylaxis occurrence result in data set [5] (first dose administrations) was “one percent and two percent”; in data set [5] (setting [6]) it was “seventeen percent and thirty-five percent”.

Regarding `C[C@H](O)C(=O)Nc1c(I)c(C(=O)NC(CO)CO)c(I)c(C(=O)NC(CO)CO)c1I` [iopamidol], the anaphylaxis occurrence result was “one percent and two percent” in data set [5] (first dose administrations); “seventeen percent and thirty-five percent” in data set [5] (setting [6]).

The values above are taken from patent US20050100510A1, “Methods for using gadolinium as a contrast media” (priority 2003, published 2005).
